Laboratory results as given in US20260209260A1, “VECTORIZED NHC IRIDIUM(III) COMPLEXES AND USE THEREOF IN PHOTODYNAMIC THERAPY AND/OR DIAGNOSTIC” (CENTRE NATIONAL DE LA RECHERCHE SCIENTIFIQUE, priority 2022, published 2026).
Several values for one entry are separate records, joined by “and”; a condition that tells them apart may be missing. Identical values can stand only once. Like-named read-outs stand apart in the source and are kept apart here.

How the values were obtained:
[1] = UV/Vis absorption spectra; type: physicochemical; conditions: room temperature, air-saturated CH2Cl2 or CH2Cl2/MeOH (1:1), 50 μM; ε in brackets, sh = shoulder
Protocol: UV/Vis absorption spectra were recorded at RT on solutions contained in quartz cuvettes (optical pathlength 1 cm, Hellma®) with a PerkinElmer® UV/VIS/NIR spectrophotometer Lambda 950 and a PerkinElmer® detector UV/VIS/NIR Accessory 2D Detector Module.

[2] = test system: cancer cells (all tumor cell lines tested); experiment: Cell viability assay (MTT), summary over the cancer cell lines tested; type: cell-based, Human
Protocol: (§1) Cells were grown in humidified incubators at 37° C. in 5% CO2. Murine MC3T3 osteoblast and NIH-3T3 fibroblast cells-used as non-tumor cell models-were cultured in a-MEM medium and DMEM medium supplemented with 10% fetal bovine serum (FBS) and 1% Penicillin/Streptomycin (P/S) antibiotics, respectively. Human T24 bladder, MGHU3 bladder, Scaber bladder, A549 lung, MCF7 breast, MiaPaCa2 pancreas cancer cells were cultured in DMEM medium supplemented with 10% FBS and 1% P/S antibiotics. […] Human Hela cervix and HepG2 liver cancer cells were cultured EMEM medium supplemented with 10% FBS and 1% P/S antibiotics.
(§2) MTT reagent (3-(4,5-dimethylthiazol-2-yl)-2,5-diphenyltetrazolium bromide) was used to determine cell death as originally described by Mosmann. Briefly, cells were seeded from 5,000 to 10,000 cells/well in 24-well plates (1 mL) depending on the cell type and allowed to attach overnight. The complexes were prepared in DMSO. The concentration of the complexes was calculated based on the elemental composition of the complexes determined by the elemental analyses. All cell viability experiments were carried out with a fixed concentration of 0.1% (v/v) DMSO. After 72 h of treatment, cells were incubated at 37° C. and 5% CO2 with 25 μL of MTT solution (5 mg/ml; Sigma-Aldrich) in 24-well plates for 3 to 4 h. After solubilization with 500 μL of DMSO, formazan was quantified spectrophotometrically with a microplate reader at 570 nm absorbance (ClarioSTAR, BMG LabTech). […] All the results were calculated from data obtained in at least three independent experiments performed in triplicate.
(§3) Two sets of experiments were conducted in parallel for each complex to be studied:
(§4) 1. The cells were incubated with the different complexes (in the dark) for 72 h.
(§5) 2. The cells were incubated for 8 h with the different complexes (in the dark), then irradiated for 10 min, followed by an incubation in the dark up to 72 h.

[3] = test system: NIH-3T3 fibroblast cells (non-tumor); experiment: Cell viability assay (MTT), dark and blue light; type: cell-based, Murine; conditions: for Photosensitizing index (PI) NIH-3T3: dark vs blue light 458 nm
How it was run: (§6)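 Tumor lines and non-tumor murine MC3T3 osteoblasts and NIH-3T3 fibroblasts were seeded overnight and treated with complexes at 0.1% (v/v) DMSO for 72 h. Light samples were irradiated 10 min after 8 h of dark incubation. Viability was measured by MTT absorbance at 570 nm.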

[4] = test system: MC3T3 osteoblast cells (non-tumor); experiment: Cell viability assay (MTT), dark and blue light; type: cell-based, Murine; conditions: for Photosensitizing index (PI) MC3T3: dark vs blue light 458 nm
How it was run: as §6

[5] = Luminescence emission spectra and quantum yield; type: physicochemical; conditions: room temperature; reference POPOP in hexane or rhodamine B in ethanol
How it was run: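 Spectrofluorometric fluorescence/phosphorescence emission spectra of the iridium(III) complexes recorded in CH2Cl2 at room temperature. Quantum yields by the Demas–Crosby relative method on solutions at RT, from integrated emission band areas versus a reference standard of known yield, corrected for solvent refractive index.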

[6] = test system: MiaPaCa2 pancreas cancer cells; experiment: Cell viability assay (MTT), dark and blue light; type: cell-based, Human; conditions: for SI (vs MC3T3) MiaPaCa2 Blue / SI (vs NIH-3T3) MiaPaCa2 Blue: blue light 458 nm; for Photosensitizing index (PI) MiaPaCa2: dark vs blue light 458 nm
Protocol: as §1, §2, §3, §4, §5

[7] = test system: A549 lung cancer cells; experiment: Cell viability assay (MTT), dark and blue light; type: cell-based, Human; conditions: for SI (vs MC3T3) A549 Blue / SI (vs NIH-3T3) A549 Blue: blue light 458 nm; for Photosensitizing index (PI) A549: dark vs blue light 458 nm
Protocol: as §1, §2, §3, §4, §5

[8] = test system: T24 bladder cancer cells; experiment: Cell viability assay (MTT), dark and blue light; type: cell-based, Human; conditions: for SI (vs MC3T3) T24 Blue / SI (vs NIH-3T3) T24 Blue: blue light 458 nm; for Photosensitizing index (PI) T24: dark vs blue light 458 nm
Protocol: as §1, §2, §3, §4, §5

[9] = test system: ASPC-1 pancreas cancer cells; experiment: Cell viability assay (MTT), dark and blue light; type: cell-based, Human; conditions: for SI (vs MC3T3) ASPC-1 Blue / SI (vs NIH-3T3) ASPC-1 Blue: blue light 458 nm; for Photosensitizing index (PI) ASPC-1: dark vs blue light 458 nm
Protocol: as §1, §2, §3, §4, §5

[10] = Lipophilicity: octanol-water partition coefficient, shake-flask method
How it was run: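 Octanol and water mutually pre-saturated for 24 h; compound ([…] stock in aqueous phase) partitioned against equal volume n-octanol, mixed 15 min, phases separated by centrifugation.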

[11] = Emission lifetime measurement; type: physicochemical
How it was run: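 Emission lifetimes measured by time-correlated single-photon counting (0.5 ns time resolution), excitation from a D2 lamp and a 405 nm pulsed diode laser. Estimated error 5% on lifetime.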

[12] = POPOP in hexane, rhodamine B in ethanol; cited from earlier work
[13] = 8 h in the dark, blue light 458 nm 10 min, then dark up to 72 h, read-out: GI50 NIH-3T3 Blue
[14] = in the dark, 72 h, read-out: GI50 NIH-3T3 Dark
[15] = 8 h in the dark, blue light 458 nm 10 min, then dark up to 72 h, read-out: GI50 MC3T3 Blue
[16] = in the dark, 72 h, read-out: GI50 MC3T3 Dark
[17] = 8 h in the dark, blue light 458 nm 10 min, then dark up to 72 h, read-out: GI50 MiaPaCa2 Blue
[18] = in the dark, 72 h, read-out: GI50 MiaPaCa2 Dark
[19] = 8 h in the dark, blue light 458 nm 10 min, then dark up to 72 h, read-out: GI50 A549 Blue
[20] = in the dark, 72 h, read-out: GI50 A549 Dark
[21] = 8 h in the dark, blue light 458 nm 10 min, then dark up to 72 h, read-out: GI50 T24 Blue
[22] = in the dark, 72 h, read-out: GI50 T24 Dark
[23] = 8 h in the dark, blue light 458 nm 10 min, then dark up to 72 h, read-out: GI50 ASPC-1 Blue
[24] = in the dark, 72 h, read-out: GI50 ASPC-1 Dark

SMILES | λmax (nm) ε (M^−1 · cm^−1) [1] | SI values, mean over cancer cells, dark [2] [fold] | SI values, median over cancer cells, dark [2] [fold] | GI50 [3, 13] [µM] | Photosensitizing index (PI) NIH-3T3 [3] | GI50 [3, 14] [µM] | GI50 [4, 15] [µM] | Photosensitizing index (PI) MC3T3 [4] | GI50 [4, 16] [µM] | GI50 [6, 17] [nM] | SI (vs MC3T3) MiaPaCa2 Blue [6] | SI (vs NIH-3T3) MiaPaCa2 Blue [6] | SI (vs MC3T3) MiaPaCa2 Dark [6] | SI (vs NIH-3T3) MiaPaCa2 Dark [6] | Photosensitizing index (PI) MiaPaCa2 [6] | GI50 [6, 18] [nM] | GI50 [7, 19] [nM] | SI (vs MC3T3) A549 Blue [7] | SI (vs NIH-3T3) A549 Blue [7] | SI (vs MC3T3) A549 Dark [7] | other results
COC(=O)c1ccc2[n+](c1)[Ir-3]13([c]4ccccc4-2)([c]2ccccc2-c2ccc(C(=O)OC)c[n+]21)[c]1n(CCCNC(=O)c2ccccc2SC/C=C(\C)CC/C=C(\C)CCC=C(C)C)cc[n+]1-c1cccc[n+]13.F[P-](F)(F)(F)(F)F [II-e] | 310 (sh) (24540), 363 (sh) (5975), 432 (5280) nm (M^−1 · cm^−1) | 4.1 | 4.1 | 5.2 | 2.3 | 12 | 10.1 | 1.1 | 11 | 180 | 57.7 | 29.7 | 5.6 | 6.1 | 11.2 | 2000 | 690 | 14.6 | 7.5 | 2.9 | ΦP emission phosphorescence quantum yield [5]: 4.6%; SI (vs NIH-3T3) A549 Dark [7]: 3.2; Photosensitizing index (PI) A549 [7]: 5.5; GI50 [7, 20]: 3800 nM; GI50 [8, 21]: 260 nM; SI (vs MC3T3) T24 Blue [8]: 38.8; SI (vs NIH-3T3) T24 Blue [8]: 20.0; SI (vs MC3T3) T24 Dark [8]: 5.0; SI (vs NIH-3T3) T24 Dark [8]: 5.5; Photosensitizing index (PI) T24 [8]: 8.6; GI50 [8, 22]: 2200 nM; GI50 [9, 23]: 1300 nM; SI (vs MC3T3) ASPC-1 Blue [9]: 7.9; SI (vs NIH-3T3) ASPC-1 Blue [9]: 4.1; SI (vs MC3T3) ASPC-1 Dark [9]: 2.2; SI (vs NIH-3T3) ASPC-1 Dark [9]: 2.3; Photosensitizing index (PI) ASPC-1 [9]: 4.0; GI50 [9, 24]: 5100 nM; Log P ([10]; n-octanol/water, shake-flask, mean of at least three determinations): 1.30 ± 0.02; τ1 emission lifetime [11]: 182 ns
CC(C)=CCC/C(C)=C/CC/C(C)=C/CSc1ccccc1C(=O)NCCCn1cc[n+]2[c]1[Ir-3]13([c]4ccccc4-c4ccc5ccccc5[n+]41)([c]1ccccc1-c1ccc4ccccc4[n+]13)[n+]1ccccc1-2.F[P-](F)(F)(F)(F)F [II-g] | 333 (20560), 438 (4735) nm (M^−1 · cm^−1) | 10.2 | 10.3 | 5.1 | 0.8 | 4.3 | 5.9 | 1.0 | 5.8 | 250 | 24.0 | 20.7 | 14.4 | 10.7 | 1.6 | 400 | 390 | 15.2 | 13.2 | 12.9 | selectivity for cancer cells over non-tumor cells, in words [2]: highest selectivity toward cancer cells compared to non-tumor cells; SI (vs NIH-3T3) A549 Dark [7]: 9.6; Photosensitizing index (PI) A549 [7]: 1.2; GI50 [7, 20]: 450 nM; GI50 [8, 21]: 640 nM and 650 nM; SI (vs MC3T3) T24 Blue [8]: 9.2; SI (vs NIH-3T3) T24 Blue [8]: 8.0; SI (vs MC3T3) T24 Dark [8]: 12.3; SI (vs NIH-3T3) T24 Dark [8]: 9.1; Photosensitizing index (PI) T24 [8]: 0.7; GI50 [8, 22]: 470 nM; GI50 [9, 23]: 470 nM; SI (vs MC3T3) ASPC-1 Blue [9]: 12.6; SI (vs NIH-3T3) ASPC-1 Blue [9]: 10.9; SI (vs MC3T3) ASPC-1 Dark [9]: 7.8; SI (vs NIH-3T3) ASPC-1 Dark [9]: 5.8; Photosensitizing index (PI) ASPC-1 [9]: 1.6; GI50 [9, 24]: 740 nM; Log P [10]: 1.95 ± 0.05
CCN(CC)c1ccc2c(-c3ccccc3C(=O)O)c3ccc(=[N+](CC)CC)cc-3oc2c1.[Cl-] [rhodamine B] |  |  |  |  |  |  |  |  |  |  |  |  |  |  |  |  |  |  |  |  | quantum yield of the reference standard [12]: 65%
